From patent US9096524B2, “Anthelmintic agents and their use” (Intervet International B.V., priority 2009, dated 2015)
Read-outs that look alike come from different tables or passages of the source.

Columns and labels:
Haemonchus contortus = test: Efficacy against Haemonchus contortus in jirds; format: in vivo, jirds (Meriones unguiculatus); conditions: 72 h, read-out: % Reduction in H.
Description: Anthelmintic effects of compounds of this invention were tested in vivo using Haemonchus contuortus in jirds (Meriones unguiculatus). The jirds were orally infected with approximately 750-3,000 third-stage larvae of Haemonchus contortus. Ten days after infection, the jirds in the treatment groups were treated once orally or subcutaneously at a dose of 2, 10, and/or 50 mg per kg bodyweight. Three days after treatment, the jirds were necropsied, and the larvae burden in the stomach is determined. The efficacy is defined as the reduction of the mean larvae count in the jirds of the treatment groups in comparison to the infected jirds in the untreated negative control group.

[1] = tested on: Haemonchus contortus larval stage 4, isolate with a resistance to benzimidazoles and ivermectin and anthelmintic-sensitive isolate; test: Resistance-breaking activity against Haemonchus contortus L4 in vitro, resistant isolate compared with sensitive isolate; format: cell-based; conditions: isolate resistant to benzimidazoles and ivermectin vs sensitive isolate
Description: Anthelmintic resistance-breaking effects of compounds of this invention were tested in vitro using larval stage 4 (“L4”) of the parasitic nematode species Haemonchus contortus (Barber's pole worm in ruminants). One isolate of Haemonchus contortus with a resistance to benzimidazoles and ivermectin was tested in comparison to the anthelmintic-sensitive isolate of Haemonchus contortus. When conducting these experiments, various concentrations of the compounds were incubated in 96-well microtiter plates. Parasites were then distributed at 20 larvae per well. The anthelmintic effects were classified by microscopic examination. The microscopic examination included assessing mortality, damage, motility, progression of development, and neutral red uptake by the larvae in comparison to a DMSO-control and standard anthelmintics. The anthelmintic effects were defined by the minimum effective concentration (“MEC”).

[2] = tested on: A. galli (intestinal roundworm of chicken) larval stage 3; O. dentatum (nodular worm of swine) larval stages 3 and 4; test: Activity against Ascaridia galli and Oesophagostomum dentatum larvae in vitro (minimum effective concentration); format: cell-based
[3] = read-out: MEC (minimum effective concentration) against one or more of the tested nematodes, in vitro, one or more of A. galli L3, O. dentatum L3, L4, threshold 1 μM
[4] = read-out: MEC (minimum effective concentration) against one or more of the tested nematodes, in vitro, one or more of A. galli L3, O. dentatum L3, L4, threshold 7 μM
[5] = read-out: MEC (minimum effective concentration) against two or more of the tested nematodes, in vitro, two or more of A. galli L3, O. dentatum L3, L4, threshold 1 μM
[6] = jirds, 10 mg/kg, oral, single treatment, larvae burden in stomach 3 days after treatment
[7] = sc, jirds, 10 mg/kg, subcutaneous, single treatment, larvae burden in stomach 3 days after treatment
[8] = in vitro, one or more of A. galli L3, O. dentatum L3, L4, threshold 1 μM, read-out: MEC (minimum effective concentration) against one or more of the tested nematodes
[9] = in vitro, one or more of A. galli L3, O. dentatum L3, L4, threshold 7 μM, read-out: MEC (minimum effective concentration) against one or more of the tested nematodes
[10] = in vitro, two or more of A. galli L3, O. dentatum L3, L4, threshold 1 μM, read-out: MEC (minimum effective concentration) against two or more of the tested nematodes
[11] = jirds, 50 mg/kg, oral, single treatment, larvae burden in stomach 3 days after treatment
[12] = sc, jirds, 50 mg/kg, subcutaneous, single treatment, larvae burden in stomach 3 days after treatment

O=C(CCN1CCC(c2ccc(Oc3ccccc3)cc2)CC1)N1CCC(Oc2ccc([N+](=O)[O-])c(C(F)(F)F)c2)CC1 [Example 45, 1-[4-(4-nitro-3-trifluoromethyl-phenoxy)-piperidin-1-yl]-3-[4-(4-phenoxy-phenyl)-piperidin-1-yl]-propan-1-one]
inhibition in vivo at 50 mg/kg (Haemonchus contortus; po): 94% | inhibition in vivo at 50 mg/kg (Haemonchus contortus; sc): 94% | activity (MEC) against the resistant versus the sensitive isolate of Haemonchus contortus [1]: the same activity against the resistant and the sensitive isolate

O=C(CCCN1CCN(c2ccc(C(F)(F)F)cc2)CC1)N1CCC(Nc2ccc(SC(F)(F)F)cc2)CC1 [Example 48, 4-[4-(4-trifluoromethyl-phenyl)-piperazin-1-yl]-1-[4-(4-trifluoromethylsulfanyl-phenylamino)-piperidin-1-yl]-butan-1-one]
inhibition in vivo at 10 mg/kg (Haemonchus contortus; po): 99% | inhibition in vivo at 10 mg/kg (Haemonchus contortus; sc): 92% | activity (MEC) against the resistant versus the sensitive isolate of Haemonchus contortus [1]: the same activity against the resistant and the sensitive isolate | minimal effective concentration [2, 3]: < 1 µM | minimal effective concentration [2, 4]: < 7 µM | minimal effective concentration [2, 5]: < 1 µM

Cc1cc(NC2CCN(C(=O)CCCN3CCN(c4ccc(C(F)(F)F)cc4)CC3)CC2)ncc1[N+](=O)[O-] [Example 71, 1-[4-(4-methyl-5-nitro-pyridin-2-ylamino)-piperidin-1-yl]-4-[4-(4-trifluoromethyl-phenyl)-piperazin-1-yl]-butan-1-one]
inhibition in vivo at 50 mg/kg (Haemonchus contortus; po): 55% | inhibition in vivo at 50 mg/kg (Haemonchus contortus; sc): 35% | minimal effective concentration [2, 3]: < 1 µM | minimal effective concentration [2, 4]: < 7 µM | minimal effective concentration [2, 5]: < 1 µM

O=C(CCCN1CCN(c2ccc(C(F)(F)F)cc2)CC1)NC1CCN(c2ccc([N+](=O)[O-])c(C(F)(F)F)c2)CC1 [Example 73, N-[1-(4-nitro-3-trifluoromethyl-phenyl)-piperidin-4-yl]-4-[4-(4-trifluoromethyl-phenyl)-piperazin-1-yl]-butyramide]
inhibition in vivo at 10 mg/kg (Haemonchus contortus; [6]): 54% | inhibition in vivo at 10 mg/kg (Haemonchus contortus; [7]): 63% | minimal effective concentration [2, 8]: < 1 µM | minimal effective concentration [2, 9]: < 7 µM | minimal effective concentration [2, 10]: < 1 µM

O=C(CCCN1CCN(c2ccc(C(F)(F)F)cc2)CC1)NC1CCN(c2ccc(SC(F)(F)F)cc2)CC1 [Example 76, 4-[4-(4-trifluoromethyl-phenyl)-piperazin-1-yl]-N-[1-(4-trifluoromethylsulfanyl-phenyl)-piperidin-4-yl]-butyramide]
inhibition in vivo at 10 mg/kg (Haemonchus contortus; [6]): 67% | inhibition in vivo at 10 mg/kg (Haemonchus contortus; [7]): 13% | minimal effective concentration [2, 8]: < 1 µM | minimal effective concentration [2, 9]: < 7 µM | minimal effective concentration [2, 10]: < 1 µM

O=C(CCN1CCN(c2nnc(C(F)(F)F)s2)CC1)N1CCC(Nc2ccc([N+](=O)[O-])c(C(F)(F)F)c2)CC1 [Example 124, 1-[4-(4-nitro-3-trifluoromethyl-phenylamino)-piperidin-1-yl]-3-[4-(5-trifluoromethyl-1,3,4-thiadiazol-2-yl)-piperazin-1-yl]-propan-1-one]
inhibition in vivo at 10 mg/kg (Haemonchus contortus; po): 47% | inhibition in vivo at 10 mg/kg (Haemonchus contortus; sc): 75% | minimal effective concentration [2, 3]: < 1 µM | minimal effective concentration [2, 4]: < 7 µM | minimal effective concentration [2, 5]: < 1 µM

O=C(CCN1CCN(c2ccc(C(F)(F)F)nc2)CC1)N1CCC(Nc2ccc([N+](=O)[O-])c(C(F)(F)F)c2)CC1 [Example 126, 1-[4-(4-nitro-3-trifluoromethyl-phenylamino)-piperidin-1-yl]-3-[4-(6-trifluoromethyl-pyridin-3-yl)-piperazin-1-yl]-propan-1-one]
inhibition in vivo at 10 mg/kg (Haemonchus contortus; po): 64% | inhibition in vivo at 10 mg/kg (Haemonchus contortus; sc): 86% | minimal effective concentration [2, 3]: < 1 µM | minimal effective concentration [2, 4]: < 7 µM | minimal effective concentration [2, 5]: < 1 µM

O=C(CCCC1CCN(c2ccc(C(F)(F)F)cc2)CC1)N1CCC(Nc2ccc([N+](=O)[O-])c(C(F)(F)F)c2)CC1 [Example 134, 1-[4-(4-nitro-3-trifluoromethyl-phenylamino)-piperidin-1-yl]-4-[1-(4-trifluoromethyl-phenyl)-piperidin-4-yl]-butan-1-one]
inhibition in vivo at 10 mg/kg (Haemonchus contortus; po): 99% | inhibition in vivo at 10 mg/kg (Haemonchus contortus; sc): 99% | minimal effective concentration [2, 3]: < 1 µM | minimal effective concentration [2, 4]: < 7 µM | minimal effective concentration [2, 5]: < 1 µM

O=C(CCCN1CCN(c2ccc(C(F)(F)F)cn2)CC1)N1CCC(Nc2ccc([N+](=O)[O-])c(C(F)(F)F)c2)CC1 [Example 151, 1-[4-(4-nitro-3-trifluoromethyl-phenylamino)-piperidin-1-yl]-4-[4-(5-trifluoromethyl-pyridin-2-yl)-piperazin-1-yl]-butan-1-one]
inhibition in vivo at 10 mg/kg (Haemonchus contortus; po): 88% | inhibition in vivo at 10 mg/kg (Haemonchus contortus; sc): 84% | minimal effective concentration [2, 3]: < 1 µM | minimal effective concentration [2, 4]: < 7 µM | minimal effective concentration [2, 5]: < 1 µM

O=C(CCN1CCN(c2ccc(Cl)cc2)CC1)N1CCC(Nc2ccc(S(=O)(=O)c3ccc(F)cc3)cc2)CC1 [Example 295]
inhibition in vivo at 50 mg/kg (Haemonchus contortus; [11]): 97% | inhibition in vivo at 50 mg/kg (Haemonchus contortus; [12]): 0% | minimal effective concentration [2, 10]: < 1 µM

CC(C)(C)c1ccc(N2CCN(CCCC(=O)N3CCC(Nc4ccc(C#N)c(Cl)c4)CC3)CC2)cc1 [Example 322]
inhibition in vivo at 50 mg/kg (Haemonchus contortus; po): 67% | inhibition in vivo at 50 mg/kg (Haemonchus contortus; sc): 73% | minimal effective concentration [2, 5]: < 1 µM

CC(C)(C)c1ccc(N2CCN(CCC(=O)N3CCC(Nc4ccc(C#N)c(C(F)(F)F)c4)CC3)CC2)cc1 [Example 324]
inhibition in vivo at 50 mg/kg (Haemonchus contortus; po): 89% | inhibition in vivo at 50 mg/kg (Haemonchus contortus; sc): 90% | minimal effective concentration [2, 5]: < 1 µM

CCOC(=O)c1ccc(NC2CCN(C(=O)CCN3CCN(c4ccc(C(C)(C)C)cc4)CC3)CC2)cc1 [Example 334]
inhibition in vivo at 50 mg/kg (Haemonchus contortus; [11]): 78% | inhibition in vivo at 50 mg/kg (Haemonchus contortus; [12]): 82% | minimal effective concentration [2, 8]: < 1 µM | minimal effective concentration [2, 10]: < 1 µM

CN(C)S(=O)(=O)c1ccc(NC2CCN(C(=O)CCN3CCN(c4ccc(C(C)(C)C)cc4)CC3)CC2)cc1C(F)(F)F [Example 345]
inhibition in vivo at 50 mg/kg (Haemonchus contortus; [11]): 76% | inhibition in vivo at 50 mg/kg (Haemonchus contortus; [12]): 61% | minimal effective concentration [2, 10]: < 1 µM

CC(C)(C)c1ccc(C2CCN(CCC(=O)N3CCC(Nc4ccc([N+](=O)[O-])c(C(F)(F)F)c4)CC3)CC2)cc1 [Example 367]
inhibition in vivo at 50 mg/kg (Haemonchus contortus; [11]): 73% | inhibition in vivo at 50 mg/kg (Haemonchus contortus; [12]): 45% | minimal effective concentration [2, 10]: < 1 µM

COc1cc(NC2CCN(C(=O)CCN3CCN(c4ccc(Cl)cc4)CC3)CC2)ccc1[N+](=O)[O-] [Example 385]
inhibition in vivo at 50 mg/kg (Haemonchus contortus; [11]): 0% | inhibition in vivo at 50 mg/kg (Haemonchus contortus; [12]): 83% | minimal effective concentration [2, 8]: < 1 µM | minimal effective concentration [2, 9]: < 7 µM | minimal effective concentration [2, 10]: < 1 µM

Cn1nnc(-c2ccc(NC3CCN(C(=O)CCN4CCN(c5ccc(C(C)(C)C)cc5)CC4)CC3)cc2)n1 [Example 444]
inhibition in vivo at 50 mg/kg (Haemonchus contortus; [11]): 78% | inhibition in vivo at 50 mg/kg (Haemonchus contortus; [12]): 52% | minimal effective concentration [2, 8]: < 1 µM | minimal effective concentration [2, 9]: < 7 µM | minimal effective concentration [2, 10]: < 1 µM

CCCc1ccc(C2CCN(CCC(=O)N3CCC(Oc4ccc([N+](=O)[O-])c(OCC)c4)CC3)CC2)cc1 [Example 579]
inhibition in vivo at 50 mg/kg (Haemonchus contortus; po): 96% | inhibition in vivo at 50 mg/kg (Haemonchus contortus; sc): 96% | minimal effective concentration [2, 5]: < 1 µM
